Reference: US20190350898A1, “METHODS AND COMPOSITIONS FOR TREATMENT OF ALZHEIMER'S DISEASE” (Neurotrope Bioscience, Inc., priority 2018, published 2019)
“And” between values parts separate entries of the source, which are not always exact repeats. Equal entries are not always repeated. “Also recorded” adds a separate entry of the source.

System: patients with advanced Alzheimer's disease
Assay: Severe Impairment Battery (SIB) change from baseline, double-blind randomized placebo-controlled trial
Type: in vivo, human
Conditions: for Mean slope of SIB over time, Unweight Slope / Mean slope of SIB over time, Weighted Slope: 20 μg Bryostatin; for Mean slope of SIB over time, Unweight Slope: baseline to week 15; for Mean slope of SIB over time, Weighted Slope: weighted by number of non-zero SIB scores; for SIB Total change from baseline, LS Mean (SE) / SIB Total, Difference vs. Placebo / SIB Total change from baseline, LS Mean: Bryostatin 20 μg; for SIB Delta at Ave of Week 13 and 15, Mean / SIB Delta at Week 5, Mean / SIB Delta at Week 9, Mean / SIB Delta at Week 13, Mean: Low dose (20), unadjusted; for Combined treatment effect, mean improvement in SIB over placebo: bryostatin 20 μg, post-hoc MMRM; for SIB Total LS Mean difference between 20 μg group and placebo: week 13
Procedure: In a double-blind, randomized, placebo-controlled trial, bryostatin was administered by intravenous infusion (˜45 minutes) to patients with advanced Alzheimer's disease for 12 weeks at doses of 20 or 40 μg. Randomization was stratified at baseline by severe (MMSE-2, 4-9) and moderate (MMSE-2, 10-15) dementia, wherein MMSE-2 refers to Mini-Mental State Examination, version 2. The MMSE or Folstein test is a 30-point questionnaire that is used extensively in clinical and research settings to measure cognitive impairment. Low scores indicate greater impairment. Version 2 of the MMSE was published in 2010, expanding the original questionnaire's usefulness in populations with milder forms of cognitive impairment. […] Importantly, this cognitive improvement persisted and increased 30 days after all bryostatin dosing had been completed.
Adults aged 55-85 with cognitive deficits present for at least 2 years, MMSE-2 of 4-15, inclusive, and a diagnosis of Alzheimer's dementia were randomly assigned to receive blinded intravenous infusions of bryostatin 24 μg or matching placebo at weeks 0 and 1. The 24 μg and 48 μg doses during the first two weeks of the 20 and 40 μg protocols respectively were considered to be “loading” doses thought to be beneficial from prior experience with Compassionate Use trial patients. Nelson et al., Alzheimers Dis. 2017 58: 521-535. In one arm, the two 24 μg doses were followed by 20 μg doses at weeks 5, 7, 9 and 11 with the Severe Impairment Battery (SIB) measured at baseline and weeks 5, 9, 13, and 15. In a second arm, the two 48 μg doses at weeks 0 and 1 were followed by 40 μg doses at weeks 5, 7, 9, and 11 with the SIB measured at baseline and weeks 5, 9, 13, and 15. The subjects were stratified by MMSE-2 in two strata: Stratum 1 (4-9) and Stratum 2 (10-15). The first primary endpoint was safety and tolerability, assessed by treatment emergent adverse events (TEAEs) with a sample size of 150 subjects randomized 1:1:1. Although efficacy was the secondary measure, the primary efficacy endpoint was SIB improvement at week 13 evaluated using a mixed model for repeated measures. A secondary efficacy endpoint was ADCS-ADL Sev. The primary safety population included all subjects who received at least 1 dose of study drug, and efficacy was evaluated in a modified intent to treat (mITT) population that received at least 1 dose of study drug and had at least one treatment evaluation. Efficacy was evaluated both as a primary end-point in the modified intent-to-treat (mITT) population and also as a primary end point in a Completers population that included all patients that completed the entire protocols as described above.
The SIB efficacy measurement at 30 days (week 15) post dosing—after all dosing had been completed (last dose administered at week 11)—was a pre-specified exploratory endpoint. Week 15 results were only included for subjects who were not re-randomized. The mixed model assumes missing at random, but order of enrollment in the trial was not random. Since order of enrollment was not random, the assumption of missing at random is not met. For this reason, only including week 15 for those who were not re-randomized is an appropriate way to estimate week 15 results, but not an appropriate way to estimate results at the earlier visits. For this reason, estimates up through week 13 are from a mixed model that only included data through week 13 and the week 15 estimates are from a separate model. Results were generated using a mixed model with repeated measures predicting change from baseline in SIB Total Score as the response variable and using baseline score, baseline MMSE strata, treatment, visit (categorical), and visit (treatment) as predictors. […]

[1] = Week 5, Completer, With Memantine
[2] = Week 5, Completer, Without Memantine
[3] = Week 9, Completer, With Memantine
[4] = Week 9, Completer, Without Memantine
[5] = Week 13, Completer, With Memantine
[6] = Week 13, Completer, Without Memantine
[7] = Week 13, FAS (mITT), With Memantine
[8] = Week 13, FAS (mITT), Without Memantine
[9] = Week 15 (30 days post dosing), Completer, MMRM
[10] = Week 15 (30 days post dosing), FAS, MMRM
[11] = Week 15, Completer, With Memantine
[12] = Week 15, Completer, Without Memantine
[13] = Week 15, FAS (mITT), Without Memantine
[14] = Memantine Exposed Patients, FAS
[15] = Memantine Treatment-Naïve Patients, FAS

## CCC/C=C/C=C/C(=O)O[C@H]1/C(=C/C(=O)OC)C[C@H]2C[C@H]([C@@H](C)O)OC(=O)C[C@H](O)C[C@@H]3C[C@H](OC(C)=O)C(C)(C)[C@](O)(C[C@@H]4C/C(=C/C(=O)OC)C[C@H](/C=C/C(C)(C)[C@]1(O)O2)O4)O3 [Bryostatin, bryostatin-1]
First column group (strata head not given, probably memantine naïve)
  Mean slope of SIB over time, Unweight Slope: 0.382
Second column group (strata head not given, probably memantine exposed)
  Mean slope of SIB over time, Unweight Slope: −0.143
First column group (probably memantine naïve)
  Mean slope of SIB over time, Weighted Slope: 0.363
Second column group (probably memantine exposed)
  Mean slope of SIB over time, Weighted Slope: −0.099
20 μg arm, week 5, after 3 doses
  SIB improvement at week 5 compared to placebo and baseline: significant improvement
20 μg dose, patients on memantine background therapy
  SIB improvement compared to placebo: no SIB improvement; also recorded: did not occur
20 μg dose, throughout the 13-week trial
  SIB improvement versus baseline and placebo: sustained improvements in SIB scores; also recorded: sustained efficacy; also recorded: sustained improvement in SIB
40 μg dose
  SIB improvement versus baseline and placebo: lack of efficacy; also recorded: no SIB improvement
Week 5, Completer, MMRM
  SIB Total change from baseline, LS Mean (SE): 1.67 (0.964)
  SIB Total, Difference vs. Placebo: 4.00
[1]
  SIB Total change from baseline, LS Mean: 0.61
  SIB Total, Difference vs. Placebo: 2.94
[2]
  SIB Total change from baseline, LS Mean: 3.22
  SIB Total, Difference vs. Placebo: 5.38
Week 5, FAS, MMRM
  SIB Total change from baseline, LS Mean (SE): 1.18 (1.102)
  SIB Total, Difference vs. Placebo: 2.96
Week 5, FAS, With Memantine
  SIB Total change from baseline, LS Mean: 0.26
  SIB Total, Difference vs. Placebo: 1.96
Week 5, FAS, Without Memantine
  SIB Total change from baseline, LS Mean: 2.74
  SIB Total, Difference vs. Placebo: 4.48
Week 9, Completer, MMRM
  SIB Total change from baseline, LS Mean (SE): 1.28 (1.119)
  SIB Total, Difference vs. Placebo: 1.85
[3]
  SIB Total change from baseline, LS Mean: −0.16
  SIB Total, Difference vs. Placebo: 0.90
[4]
  SIB Total change from baseline, LS Mean: 3.34
  SIB Total, Difference vs. Placebo: 2.66
Week 9, FAS, MMRM
  SIB Total change from baseline, LS Mean (SE): 0.94 (1.149)
  SIB Total, Difference vs. Placebo: 1.03
Week 9, FAS, With Memantine
  SIB Total change from baseline, LS Mean: −0.33
  SIB Total, Difference vs. Placebo: 0.09
Week 9, FAS, Without Memantine
  SIB Total change from baseline, LS Mean: 2.95
  SIB Total, Difference vs. Placebo: 2.08
Week 13, Completer, MMRM
  SIB Total change from baseline, LS Mean (SE): 1.51 (1.118)
  SIB Total, Difference vs. Placebo: 2.63
Week 13, Completer, MMRM, listed as bryostatin
  SIB Total, Difference vs. Placebo: 2.6
[5]
  SIB Total change from baseline, LS Mean: −0.39
  SIB Total, Difference vs. Placebo: 0.56
[6]
  SIB Total change from baseline, LS Mean: 4.22
  SIB Total, Difference vs. Placebo: 5.53
[7]
  SIB Total change from baseline, LS Mean: −0.60
  SIB Total, Difference vs. Placebo: −0.14
[8]
  SIB Total change from baseline, LS Mean: 3.83 points
  SIB Total, Difference vs. Placebo: 5.11
Week 13, FAS, MMRM
  SIB Total change from baseline, LS Mean (SE): 1.16 (1.150)
  SIB Total, Difference vs. Placebo: 1.94
[9]
  SIB Total change from baseline, LS Mean (SE): 1.96 (1.255)
  SIB Total, Difference vs. Placebo: 4.09
Week 15 (30 days post dosing), Completer, MMRM, listed as bryostatin
  SIB Total, Difference vs. Placebo: 4.0 and 4.09
[10]
  SIB Total change from baseline, LS Mean (SE): 1.77 (1.342) points
  SIB Total, Difference vs. Placebo: 3.59
Week 15 (30 days post dosing), FAS, MMRM, listed as bryostatin
  SIB Total change from baseline, LS Mean (SE): 1.77 points
[11]
  SIB Total change from baseline, LS Mean: −0.71
  SIB Total, Difference vs. Placebo: 1.45
[12]
  SIB Total change from baseline, LS Mean: 6.24
  SIB Total, Difference vs. Placebo: 6.36
[13]
  SIB Total change from baseline, LS Mean: 5.88 points
  SIB Total, Difference vs. Placebo: 5.93
Week 15, FAS, With Memantine
  SIB Total change from baseline, LS Mean: −0.83
  SIB Total, Difference vs. Placebo: 0.79
Completers, 20 μg group 'without memantine' as printed
  13-week LS Mean change in SIB (so in the source): 0.56
[14]
  SIB Delta at Ave of Week 13 and 15, Mean: −0.727
  SIB Delta at Week 5, Mean: 0.077
  SIB Delta at Week 9, Mean: −0.087
  SIB Delta at Week 13, Mean: −0.545
[15]
  SIB Delta at Ave of Week 13 and 15, Mean: 5.406
  SIB Delta at Week 5, Mean: 3.444
  SIB Delta at Week 9, Mean: 3.467
  SIB Delta at Week 13, Mean: 4.500
Memantine Exposed, adjusted for Base SIB, MMSE-2
  Treatment, adjusted slope (ANCOVA, SIB at 13/15 weeks from baseline, 20 μg Bryostatin vs placebo): −0.620 (p = 0.815)
Memantine Exposed, adjusted for Baseline SIB
  Treatment, adjusted slope (ANCOVA, SIB at 13/15 weeks from baseline, 20 μg Bryostatin vs placebo): −0.531 (p = 0.843)
Memantine Naïve, adjusted for Base SIB, MMSE-2
  Treatment, adjusted slope (ANCOVA, SIB at 13/15 weeks from baseline, 20 μg Bryostatin vs placebo): 5.923 (p = 0.002)
Memantine Naïve, adjusted for Baseline SIB
  Treatment, adjusted slope (ANCOVA, SIB at 13/15 weeks from baseline, 20 μg Bryostatin vs placebo): 5.426 (p = 0.010)
Weeks 5, 9, 13, and 15, 30-Day Follow-up population
  Combined treatment effect, mean improvement in SIB over placebo: 4.721
Weeks 5, 9, and 13, Completer population
  Combined treatment effect, mean improvement in SIB over placebo: 3.089
Weeks 5, 9, and 13, FAS population
  Combined treatment effect, mean improvement in SIB over placebo: 2.146
AChEI non-users
  SIB Total LS Mean difference between 20 μg group and placebo: 2.00
AChEI users
  SIB Total LS Mean difference between 20 μg group and placebo: 2.09
